Assay results: publication PMC3853281, “The Strawberry Pathogenesis-related 10 (PR-10) Fra a Proteins Control Flavonoid Biosynthesis by Binding to Metabolic Intermediates” (The Journal of Biological Chemistry, 2013)

Legend:
[1] = target: T1, Fra a 1E (Fragaria x ananassa, UniProt Q256S2); test: isothermal titration calorimetry; assay type: binding
T1 construct: gene FRAA1E.1; full-length ORF in pETM11, E. coli BL21(DE3); N-terminal His6 cut by TEV, Ala-Met-Ala left at N-terminus; monomer, 18 kDa by SEC-MALLS; residues 2-160 modelled

[2] = target: T2, Fra a 2 (Fragaria x ananassa, UniProt D0E0C6); test: isothermal titration calorimetry; assay type: binding
T2 construct: gene FRAA2; full-length ORF in pETM11, E. coli BL21(DE3); N-terminal His6 cut by TEV, Ala-Met-Ala left at N-terminus; apparent 28 kDa by SEC-MALLS
T2 sequence (D0E0C6 whole entry): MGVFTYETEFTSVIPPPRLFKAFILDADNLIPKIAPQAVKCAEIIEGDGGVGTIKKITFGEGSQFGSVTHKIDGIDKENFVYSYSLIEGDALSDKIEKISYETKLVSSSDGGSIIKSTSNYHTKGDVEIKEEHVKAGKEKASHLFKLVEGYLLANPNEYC

T1 sequence (Q256S2 whole entry, the tested form may be a part): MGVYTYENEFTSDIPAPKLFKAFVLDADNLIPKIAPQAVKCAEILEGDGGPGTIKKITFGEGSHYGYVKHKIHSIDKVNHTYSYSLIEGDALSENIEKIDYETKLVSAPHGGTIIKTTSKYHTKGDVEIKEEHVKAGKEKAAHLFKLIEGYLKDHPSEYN

Structure (SMILES)	Kd [1] [µM]	Kd [2] [µM]
O=C(O)[C@H]1O[C@@H](Oc2c(-c3ccc(O)c(O)c3)oc3cc(O)cc(O)c3c2=O)[C@H](O)[C@@H](O)[C@@H]1O [Quercetin-3-O-glucuronide]	5.3	–
O=c1c(O)c(-c2cc(O)c(O)c(O)c2)oc2cc(O)cc(O)c12 [myricetin]	–	19.5
